These results are taken from patent US11078207B2, “Substituted pyrrolo[2,3-d]pyrimidines as HER2 inhibitors” (TAIHO PHARMACEUTICAL CO., LTD., priority 2019, dated 2021).

For data set [1], the target named is T1, HER2 (Homo sapiens, UniProt P04626).
T1 construct: purchased Carna Biosciences, Inc
Kind of data set: Inhibitory effect (in vitro) on HER2 phosphorylation activity. The class given is biochemical. The following applies: recombinant human HER2, ATP 5 μM, 25° C. 30 minutes. The essentials: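 Purified recombinant human HER2 phosphorylating 5-FAM-labeled ProfilerPro Peptide 22 substrate, compounds serially diluted in DMSO. Reaction stopped with EDTA at 30 mM final; unphosphorylated and phosphorylated peptides separated and detected by microchannel capillary electrophoresis.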

In data set [2] the test system is SK-BR-3 cells. The data set can be described thus: Growth inhibitory activity against HER2 expressing cell line SK-BR-3. The class given is cell-based. The following applies: Homo sapiens, SK-BR-3, 72 h; 3 days, CellTiter-Glo 2.0. The essentials:
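SK-BR-3 cells in McCoy's 5a with 10% FBS, pre-cultured 1 day, then exposed to compound (final DMSO 0.2%) for 3 days at 37° C, 5% CO2. Viability by CellTiter-Glo 2.0 luminescence; growth inhibition % = (C−T)/C×100 versus untreated wells.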
(ATP-based viability assays read luminescence as a measure of living cells.)

Data set [3] has as its target Ba/F3-HER2insYVMA cells (Homo sapiens, UniProt P04626, DUP772-775, cells depend on it). Kind of data set: Growth inhibitory activity against HER2 exon 20 insertion mutant expressing cell line. Type of data set: cell-based, mouse. The following applies: 3 days, CellTiter-Glo 2.0, read-out: HER2ex20insYVMA cell growth inhibitory activity IC50 value.
For data set [4], the system named is NCI-N87 cells. Kind of data set: Growth inhibitory activity against HER2 expressing cell line NCI-N87. Type of data set: cell-based. The following applies: Homo sapiens, NCI-N87, 72 h; 3 days, CellTiter-Glo 2.0.
Data set [5] can be described thus: Evaluation of oral absorbability. The following applies: mouse; plasma, oral 50 mg/kg/day, BALB/cA mice. Type of data set: in vivo, BALB/cA mice.
Data set [6] is described as follows: Evaluation of brain penetration properties. The class given is in vivo, BALB/cA mice. Particulars: mouse, 0.5 hours after oral 50 mg/kg/day, BALB/cA mice; for Kp at 0.5 h: read-out: Kp value (Compound concentration in brain/plasma).
Where [7] appears, read: brain, read-out: Compound concentration in brain.
Setting [8] is: plasma, read-out: Compound concentration in plasma.

Read-outs that look alike come from different tables or passages of the source.

T1 sequence (P04626 23-1255): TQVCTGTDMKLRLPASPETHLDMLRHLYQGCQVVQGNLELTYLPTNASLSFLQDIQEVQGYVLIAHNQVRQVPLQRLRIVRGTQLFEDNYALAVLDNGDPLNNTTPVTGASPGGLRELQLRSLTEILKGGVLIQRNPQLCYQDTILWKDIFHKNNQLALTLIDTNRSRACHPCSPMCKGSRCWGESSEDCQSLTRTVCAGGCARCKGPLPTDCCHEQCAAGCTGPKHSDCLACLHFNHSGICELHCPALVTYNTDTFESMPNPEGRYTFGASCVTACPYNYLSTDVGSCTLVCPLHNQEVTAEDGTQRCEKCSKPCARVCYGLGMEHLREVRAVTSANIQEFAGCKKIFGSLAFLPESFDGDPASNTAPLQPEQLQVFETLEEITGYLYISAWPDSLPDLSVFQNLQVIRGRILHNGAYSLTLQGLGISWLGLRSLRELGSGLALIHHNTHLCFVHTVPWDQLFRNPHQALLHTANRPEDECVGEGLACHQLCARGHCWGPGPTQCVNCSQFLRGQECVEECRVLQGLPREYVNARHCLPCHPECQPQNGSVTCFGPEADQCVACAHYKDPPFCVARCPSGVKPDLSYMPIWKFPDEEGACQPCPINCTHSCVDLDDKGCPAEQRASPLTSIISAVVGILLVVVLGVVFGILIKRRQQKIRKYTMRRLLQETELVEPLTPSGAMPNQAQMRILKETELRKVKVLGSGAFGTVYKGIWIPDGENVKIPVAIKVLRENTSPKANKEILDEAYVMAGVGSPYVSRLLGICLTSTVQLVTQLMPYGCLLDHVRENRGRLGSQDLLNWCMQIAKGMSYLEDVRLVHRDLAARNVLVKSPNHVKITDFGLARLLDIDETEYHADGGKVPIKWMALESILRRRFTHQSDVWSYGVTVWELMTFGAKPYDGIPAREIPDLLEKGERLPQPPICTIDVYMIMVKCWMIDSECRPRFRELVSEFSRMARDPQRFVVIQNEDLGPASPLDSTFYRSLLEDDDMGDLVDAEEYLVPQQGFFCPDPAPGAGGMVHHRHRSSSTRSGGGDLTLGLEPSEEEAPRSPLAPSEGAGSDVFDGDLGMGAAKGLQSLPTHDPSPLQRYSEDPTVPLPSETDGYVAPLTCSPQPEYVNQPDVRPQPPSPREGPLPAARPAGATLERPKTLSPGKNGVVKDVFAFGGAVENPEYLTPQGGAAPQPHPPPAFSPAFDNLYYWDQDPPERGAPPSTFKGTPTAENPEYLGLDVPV
Ba/F3-HER2insYVMA cells, sequence (P04626 with tags, fused parts or gaps DUP772-775): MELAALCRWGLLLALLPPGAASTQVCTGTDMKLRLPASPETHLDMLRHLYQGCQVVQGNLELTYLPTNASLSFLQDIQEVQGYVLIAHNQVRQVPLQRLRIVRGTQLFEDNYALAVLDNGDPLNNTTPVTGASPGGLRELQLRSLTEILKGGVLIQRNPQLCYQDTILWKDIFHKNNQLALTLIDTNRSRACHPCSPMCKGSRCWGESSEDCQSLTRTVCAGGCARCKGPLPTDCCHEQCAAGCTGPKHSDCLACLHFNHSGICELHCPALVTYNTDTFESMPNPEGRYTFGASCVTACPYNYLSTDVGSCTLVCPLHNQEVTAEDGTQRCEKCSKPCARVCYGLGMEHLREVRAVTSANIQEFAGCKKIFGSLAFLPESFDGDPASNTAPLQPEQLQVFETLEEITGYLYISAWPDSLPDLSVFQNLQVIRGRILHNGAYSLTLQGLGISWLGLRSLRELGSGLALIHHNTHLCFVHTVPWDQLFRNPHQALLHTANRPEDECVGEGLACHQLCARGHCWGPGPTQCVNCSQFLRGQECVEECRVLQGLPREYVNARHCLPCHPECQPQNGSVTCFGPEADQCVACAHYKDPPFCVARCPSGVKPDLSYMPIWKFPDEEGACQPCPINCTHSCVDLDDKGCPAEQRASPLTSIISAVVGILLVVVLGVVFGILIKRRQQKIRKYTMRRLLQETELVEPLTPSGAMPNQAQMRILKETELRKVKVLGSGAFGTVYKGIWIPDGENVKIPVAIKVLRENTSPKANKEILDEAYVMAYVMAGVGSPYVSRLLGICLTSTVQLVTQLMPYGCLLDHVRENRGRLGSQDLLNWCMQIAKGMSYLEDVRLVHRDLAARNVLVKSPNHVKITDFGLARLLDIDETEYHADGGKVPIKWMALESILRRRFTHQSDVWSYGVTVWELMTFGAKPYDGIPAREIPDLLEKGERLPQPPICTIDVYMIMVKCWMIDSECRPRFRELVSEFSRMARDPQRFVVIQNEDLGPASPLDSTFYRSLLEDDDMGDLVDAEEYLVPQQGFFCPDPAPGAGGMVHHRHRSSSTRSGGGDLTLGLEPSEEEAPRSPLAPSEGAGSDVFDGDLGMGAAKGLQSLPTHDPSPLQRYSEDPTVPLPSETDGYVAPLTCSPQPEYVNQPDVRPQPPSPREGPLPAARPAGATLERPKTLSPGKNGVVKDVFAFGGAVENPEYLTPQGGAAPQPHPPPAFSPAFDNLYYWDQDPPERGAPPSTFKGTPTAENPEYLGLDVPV

Take `C=CC(=O)N1C[C@H](n2c(C#CC)c(C(=O)N[C@@H](c3ccccc3)C(F)(F)F)c3c(N)ncnc32)C[C@@H]1C` [Example 8, 7-((3R,5S)-1-acryloyl-5-methylpyrrolidin-3-yl)-4-amino-6-(prop-1-yn-1-yl)-N—((S)-2,2,2-trifluoro-1-phenylethyl)-7H-pyrrolo[2,3-d]pyrimidine-5-carboxamide]: the IC50 turned out to be 10 nM in data set [1], 14 nM in data set [2] and 9.7 nM in data set [4]. Also, the GI50 in data set [3] came out at 26 nM. Also, in data set [5], the AUC(0-t) came out at 15 µM·h. The values for the concentration at 0.5 h in data set [6] (setting [7]) and in data set [6] (setting [8]) were 3.3 µM and 9.9 µM, respectively. The Kp at 0.5 h in data set [6] (brain) is 0.33.
`C=CC(=O)N1C[C@H](n2c(C#CC3CC3)c(C(=O)N[C@H](C)c3ccccc3)c3c(N)ncnc32)C[C@@H]1COC` [Example 18, 7-((3R,5R)-1-acryloyl-5-(methoxymethyl)pyrrolidin-3-yl)-4-amino-6-(cyclopropylethynyl)-N—((R)-1-phenylethyl)-7H-pyrrolo[2,3-d]pyrimidine-5-carboxamide]: the values for the IC50 in data set [1], in data set [2] and in data set [4] were 2.3 nM, 3.4 nM and 2.6 nM, respectively. The GI50 in data set [3] turned out to be 14 nM. In addition, the AUC(0-t) in data set [5] was 15 µM·h. In addition, the concentration at 0.5 h was found to be 1.6 µM in data set [6] (setting [7]) and 7.7 µM in data set [6] (setting [8]). Besides, in data set [6] (brain), the Kp at 0.5 h was found to be 0.22.
As to `C=CC(=O)N1C[C@H](n2c(C#CC)c(C(=O)N[C@H](C)c3cc(F)cc(F)c3)c3c(N)ncnc32)C[C@@H]1C` [Example 1, 7-(R)-((3R,5S)-1-acryloyl-5-methylpyrrolidin-3-yl)-4-amino-N—((R)-1-(3,5-difluorophenyl)ethyl)-6-(prop-1-yn-1-yl)-7H-pyrrolo[2,3-d]pyrimidine-5-carboxamide], the figures for the IC50 in data set [1], in data set [2] and in data set [4] were 2.7 nM, 9.3 nM and 10.7 nM, respectively. Further, in data set [3], the GI50 was determined as 17 nM. In data set [5], this compound displayed an AUC(0-t) of 50 µM·h. The concentration at 0.5 h in data set [6] (setting [7]) turned out to be 1.4 µM; in data set [6] (setting [8]), 9.1 µM. In addition, in data set [6] (brain), the Kp at 0.5 h was 0.15.
Consider `C=CC(=O)N1C[C@H](n2c(C#CC)c(C(=O)N[C@H](C)c3ccccc3)c3c(N)ncnc32)C[C@@H]1CC` [Example 16, 7-((3R,5S)-1-acryloyl-5-ethylpyrrolidin-3-yl)-4-amino-N—((R)-1-phenylethyl)-6-(prop-1-yn-1-yl)-7H-pyrrolo[2,3-d]pyrimidine-5-carboxamide], for which the results for the 50% inhibitory concentration (IC50) in data set [1], in data set [2] and in data set [4] were 3.3 nM, 1.4 nM and 0.9 nM, respectively. Moreover, in data set [3], the GI50 turned out to be 9.7 nM. This compound showed an area under the curve AUC(0-t) in data set [5] of 15 µM·h. For the same compound, the concentration at 0.5 h was 4.4 µM in data set [6] (setting [7]) and 12 µM in data set [6] (setting [8]). For the same compound, the Kp at 0.5 h in data set [6] (brain) came out at 0.35.
Take `C=CC(=O)N1C[C@H](n2c(C#CC)c(C(=O)NC(C)(C)c3ccccc3)c3c(N)ncnc32)C[C@@H]1C` [Example 3, 7-((3R,5S)-1-acryloyl-5-methylpyrrolidin-3-yl)-4-amino-N-(2-phenylpropan-2-yl)-6-(prop-1-yn-1-yl)-7H-pyrrolo[2,3-d]pyrimidine-5-carboxamide]: the IC50 was determined as 5.8 nM in data set [1], 4.5 nM in data set [2] and 4.7 nM in data set [4]. Moreover, the GI50 in data set [3] turned out to be 25 nM. The compound further displayed an area under the curve AUC(0-t) in data set [5] of 24 µM·h. Further, the concentration at 0.5 h worked out at 1.4 µM in data set [6] (setting [7]) and 11 µM in data set [6] (setting [8]). Besides, the Kp at 0.5 h in data set [6] (brain) amounted to 0.13.
Take `C=CC(=O)N1C[C@H](n2c(C#CC3CC3)c(C(=O)N[C@H](C)c3cccc(F)c3F)c3c(N)ncnc32)C[C@@H]1C` [Example 10, 7-((3R,5S)-1-acryloyl-5-methylpyrrolidin-3-yl)-4-amino-6-(cyclopropylethynyl)-N—((R)-1-(2,3-difluorophenyl)ethyl)-7H-pyrrolo[2,3-d]pyrimidine-5-carboxamide]: the IC50 is 2.2 nM in data set [1], 13 nM in data set [2] and 10.5 nM in data set [4]. Also, the GI50 in data set [3] was determined as 29 nM. The compound also showed an AUC(0-t) in data set [5] of 50 µM·h. Further, the concentration at 0.5 h in data set [6] (setting [7]) came out at 2.4 µM; in data set [6] (setting [8]), 13 µM. Further, in data set [6] (brain), the Kp at 0.5 h was determined as 0.18.
Regarding `C=CC(=O)N1C[C@H](n2c(C#CC)c(C(=O)N[C@H](C)c3cccc(Cl)c3)c3c(N)ncnc32)C[C@@H]1C` [Example 6, 7-((3R,5S)-1-acryloyl-5-methylpyrrolidin-3-yl)-4-amino-N—((R)-1-(3-chlorophenyl)ethyl)-6-(prop-1-yn-1-yl)-7H-pyrrolo[2,3-d]pyrimidine-5-carboxamide], the IC50 in data set [1] turned out to be 2.8 nM; in data set [2], 10 nM; in data set [4] it was 8.5 nM. The GI50 in data set [3] came out at 28 nM. Besides, the area under the curve AUC(0-t) in data set [5] stood at 17 µM·h. The figures for the concentration at 0.5 h in data set [6] (setting [7]) and in data set [6] (setting [8]) were 1.3 µM and 7.5 µM, respectively. Besides, the Kp at 0.5 h in data set [6] (brain) turned out to be 0.17.
Consider `C=CC(=O)N1C[C@H](n2c(C#CC3CC3)c(C(=O)N[C@H](C)c3ccccc3)c3c(N)ncnc32)C[C@@H]1CC` [Example 17, 7-((3R,5S)-1-acryloyl-5-ethylpyrrolidin-3-yl)-4-amino-6-(cyclopropylethynyl)-N—((R)-1-phenylethyl)-7H-pyrrolo[2,3-d]pyrimidine-5-carboxamide], for which the IC50 in data set [1] is 2.9 nM; in data set [2], 4 nM; in data set [4] it was 2.2 nM. Also, in data set [3], the GI50 was 20 nM. Besides, in data set [5], the AUC(0-t) turned out to be 21 µM·h. For the same compound, the results for the concentration at 0.5 h in data set [6] (setting [7]) and in data set [6] (setting [8]) were 6.5 µM and 17 µM, respectively. Besides, in data set [6] (brain), the Kp at 0.5 h was found to be 0.39.
With `C=CC(=O)N1C[C@H](n2c(C#CC)c(C(=O)NC(C)(C)c3ccccc3F)c3c(N)ncnc32)C[C@@H]1C` [Example 5, 7-((3R,5S)-1-acryloyl-5-methylpyrrolidin-3-yl)-4-amino-N-(2-(2-fluorophenyl)propan-2-yl)-6-(prop-1-yn-1-yl)-7H-pyrrolo[2,3-d]pyrimidine-5-carboxamide], the IC50 is 7.7 nM in data set [1], 4 nM in data set [2] and 7 nM in data set [4]. For the same compound, the GI50 in data set [3] was found to be 14 nM. In data set [5], this compound displayed an exposure AUC(0-t) of 20 µM·h. Further, the concentration at 0.5 h in data set [6] (setting [7]) is 2.2 µM; in data set [6] (setting [8]), 15 µM. Also, in data set [6] (brain), the Kp at 0.5 h stood at 0.15.

As usually defined, the IC50 is the concentration that inhibits the measured activity by half. In general, AUC(0-t) refers to exposure summed from dosing to a finite time, without extrapolation to infinity.
